From ChEMBL document CHEMBL1201862, “PubChem BioAssay data set” (2004)
Calls of active or inactive are those of the source.

Tests used:
[1] = intracellular Trypanosoma cruzi inhibitors in host cells – cell-based, plate reader, cherry-pick samples, set 3, dose response (AID 651818); assay type: functional;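 further: compounds incubated with infected cells for about four days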
[2] = biological target: Voltage-dependent T-type calcium channel subunit alpha-1H (Homo sapiens, UniProt O95180); assay type: functional;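 further: channel activity triggered by adding a high calcium stimulation buffer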
Voltage-dependent T-type calcium channel subunit alpha-1H, sequence (O95180 whole entry): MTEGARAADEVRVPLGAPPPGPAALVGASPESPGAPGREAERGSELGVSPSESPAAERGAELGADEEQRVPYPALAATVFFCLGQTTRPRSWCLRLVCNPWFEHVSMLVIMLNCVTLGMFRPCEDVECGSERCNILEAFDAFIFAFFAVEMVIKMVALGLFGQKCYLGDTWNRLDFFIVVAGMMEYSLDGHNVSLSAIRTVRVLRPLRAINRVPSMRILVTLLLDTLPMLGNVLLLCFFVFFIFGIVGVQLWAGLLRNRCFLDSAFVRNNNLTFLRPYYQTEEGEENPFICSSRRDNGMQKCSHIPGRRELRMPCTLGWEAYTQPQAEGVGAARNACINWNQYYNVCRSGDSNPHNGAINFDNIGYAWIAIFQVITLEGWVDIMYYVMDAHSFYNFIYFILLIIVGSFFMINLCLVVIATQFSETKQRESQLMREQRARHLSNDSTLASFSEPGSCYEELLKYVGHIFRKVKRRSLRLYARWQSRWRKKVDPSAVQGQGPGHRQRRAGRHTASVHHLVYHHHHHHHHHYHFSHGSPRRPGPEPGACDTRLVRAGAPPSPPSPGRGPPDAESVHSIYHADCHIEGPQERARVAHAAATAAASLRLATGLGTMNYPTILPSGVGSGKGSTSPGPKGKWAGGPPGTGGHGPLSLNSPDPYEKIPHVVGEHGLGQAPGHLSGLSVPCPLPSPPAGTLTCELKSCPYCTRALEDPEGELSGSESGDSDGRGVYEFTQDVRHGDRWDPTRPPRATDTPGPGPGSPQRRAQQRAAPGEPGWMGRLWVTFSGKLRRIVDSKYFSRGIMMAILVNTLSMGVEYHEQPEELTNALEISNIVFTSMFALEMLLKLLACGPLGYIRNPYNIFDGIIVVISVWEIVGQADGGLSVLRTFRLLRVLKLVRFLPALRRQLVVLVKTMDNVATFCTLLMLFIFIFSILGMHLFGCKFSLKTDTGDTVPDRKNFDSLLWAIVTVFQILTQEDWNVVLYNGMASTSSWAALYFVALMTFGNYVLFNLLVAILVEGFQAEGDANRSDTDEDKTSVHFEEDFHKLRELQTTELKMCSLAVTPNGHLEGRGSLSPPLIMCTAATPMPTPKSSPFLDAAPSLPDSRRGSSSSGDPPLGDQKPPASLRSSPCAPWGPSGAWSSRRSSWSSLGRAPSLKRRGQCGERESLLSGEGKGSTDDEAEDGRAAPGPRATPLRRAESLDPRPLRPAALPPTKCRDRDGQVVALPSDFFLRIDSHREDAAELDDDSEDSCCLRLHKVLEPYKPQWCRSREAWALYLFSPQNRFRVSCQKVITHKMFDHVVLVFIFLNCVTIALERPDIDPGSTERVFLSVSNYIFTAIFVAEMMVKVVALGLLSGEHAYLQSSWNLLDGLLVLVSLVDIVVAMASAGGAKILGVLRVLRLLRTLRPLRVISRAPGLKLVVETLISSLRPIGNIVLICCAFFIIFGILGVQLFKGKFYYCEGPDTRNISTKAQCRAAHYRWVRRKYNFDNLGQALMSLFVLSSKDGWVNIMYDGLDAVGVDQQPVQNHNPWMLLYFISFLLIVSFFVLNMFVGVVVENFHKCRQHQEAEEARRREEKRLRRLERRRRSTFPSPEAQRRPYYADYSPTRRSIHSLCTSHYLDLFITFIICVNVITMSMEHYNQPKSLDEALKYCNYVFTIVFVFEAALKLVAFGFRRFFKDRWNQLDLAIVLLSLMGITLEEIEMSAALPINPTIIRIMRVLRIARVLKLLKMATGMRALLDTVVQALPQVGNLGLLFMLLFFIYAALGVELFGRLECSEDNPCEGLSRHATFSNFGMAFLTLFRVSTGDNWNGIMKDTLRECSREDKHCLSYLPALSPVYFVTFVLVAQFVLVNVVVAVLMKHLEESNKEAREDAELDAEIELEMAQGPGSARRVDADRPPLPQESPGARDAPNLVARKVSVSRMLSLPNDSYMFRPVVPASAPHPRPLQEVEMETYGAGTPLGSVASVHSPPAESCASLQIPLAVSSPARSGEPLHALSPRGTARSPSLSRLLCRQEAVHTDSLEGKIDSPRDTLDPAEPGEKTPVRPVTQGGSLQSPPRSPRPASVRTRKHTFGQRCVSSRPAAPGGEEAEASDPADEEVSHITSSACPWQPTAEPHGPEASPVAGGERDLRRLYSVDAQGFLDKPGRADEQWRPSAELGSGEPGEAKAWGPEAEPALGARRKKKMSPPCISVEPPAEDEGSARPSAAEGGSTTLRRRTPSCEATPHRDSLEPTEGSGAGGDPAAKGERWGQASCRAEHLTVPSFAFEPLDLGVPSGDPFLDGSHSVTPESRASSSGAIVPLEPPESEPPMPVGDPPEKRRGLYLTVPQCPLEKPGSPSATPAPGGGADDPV

[3] = NIH3T3 cell viability loss – ATP luminescence, mouse fibroblasts, counter-screen, dose response (AID 2010); assay type: functional, cell-based;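 further: cells exposed to compound for about 90 hours before reading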
[4] = microbe, parasite or virus in culture; assay type: functional; details: Mycobacterium tuberculosis
[5] = Trypanosoma cruzi growth suppression in host cells – NIH3T3 host cells, beta-gal luminescence, confirmation (AID 2044); assay type: functional, cell-based;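 further: intracellular parasites grown in NIH/3T3 mouse fibroblasts as host cells; luminescent beta-galactosidase reporter signal from transgenic T. cruzi replicating inside host cells; inhibitors lower the luminescence signal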
[6] = biological target: T1, DNA repair protein RAD52 homolog (Homo sapiens, UniProt P43351); assay type: functional, biochemical
T1 sequence (P43351 whole entry): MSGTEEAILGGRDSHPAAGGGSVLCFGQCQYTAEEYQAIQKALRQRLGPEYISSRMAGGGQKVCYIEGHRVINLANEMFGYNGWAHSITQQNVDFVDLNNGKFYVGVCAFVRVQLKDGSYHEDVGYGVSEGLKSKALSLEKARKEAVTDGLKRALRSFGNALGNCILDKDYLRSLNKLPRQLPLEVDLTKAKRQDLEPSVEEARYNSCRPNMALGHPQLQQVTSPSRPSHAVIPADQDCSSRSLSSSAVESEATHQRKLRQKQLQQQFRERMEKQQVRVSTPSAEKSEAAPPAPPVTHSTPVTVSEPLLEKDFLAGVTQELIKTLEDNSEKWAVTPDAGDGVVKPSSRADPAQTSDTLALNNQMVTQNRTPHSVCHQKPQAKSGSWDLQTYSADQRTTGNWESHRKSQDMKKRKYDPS

[7] = HIV-1 AD8 envelope cell-cell fusion blockers – cherry-pick, dose response (AID 652062); assay type: functional, cell-based;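 further: luciferase signal from cell-cell fusion driven by HIV-1 clade B AD8 Env; potency is for inhibitors of fusion seen as a drop in luminescence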
[8] = blockers of HIV-1 envelope-mediated cell-cell fusion – cherry-pick, dose response (AID 652057); assay type: functional, cell-based
[9] = biological target: T2, Polyadenylate-binding protein 1 (Homo sapiens, UniProt P11940); assay: MLLE domain peptide-binding blockers, IC50 – biochemical, fluorescence polarization, FITC-PAM2 peptide, dose response (AID 602259); assay type: functional; details: read-out: IC50_Mean
T2 sequence (P11940 whole entry, the tested form may be a part): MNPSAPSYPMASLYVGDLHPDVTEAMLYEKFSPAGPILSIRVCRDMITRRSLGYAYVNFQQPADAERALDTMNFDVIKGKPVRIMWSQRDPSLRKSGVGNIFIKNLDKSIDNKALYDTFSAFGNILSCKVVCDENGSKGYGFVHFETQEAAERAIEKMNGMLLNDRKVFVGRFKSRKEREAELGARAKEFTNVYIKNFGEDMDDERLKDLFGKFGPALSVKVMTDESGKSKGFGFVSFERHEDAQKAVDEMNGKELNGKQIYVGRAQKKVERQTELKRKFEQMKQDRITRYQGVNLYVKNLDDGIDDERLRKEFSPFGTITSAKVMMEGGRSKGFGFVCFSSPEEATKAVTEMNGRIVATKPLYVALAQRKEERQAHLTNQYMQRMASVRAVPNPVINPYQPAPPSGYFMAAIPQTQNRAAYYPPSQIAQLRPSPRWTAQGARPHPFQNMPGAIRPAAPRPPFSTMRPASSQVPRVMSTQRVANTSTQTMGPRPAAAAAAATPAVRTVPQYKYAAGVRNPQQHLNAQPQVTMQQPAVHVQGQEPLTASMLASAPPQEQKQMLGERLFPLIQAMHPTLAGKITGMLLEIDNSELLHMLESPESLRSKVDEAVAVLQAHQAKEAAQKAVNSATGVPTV

[10] = biological target: T2, Polyadenylate-binding protein 1; assay: MLLE binding blockers, Cy5 peptide tracer – biochemical, fluorescence polarization, Cy5-PAM2 peptide, secondary, miRNA deadenylation inhibitor project, dose response (AID 602260); assay type: functional; details: read-out: IC50_Mean
[11] = viability of PTEN-deleted HCT116 cells – cell-based, HCT116 PTEN knockout, dose response (AID 1047); assay type: functional;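 further: HCT116 colon tumor cells with PTEN knocked out; cells exposed to compound for 60 hours before readout; potency for loss of cell viability measured by luminescence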
[12] = viability of HCT116 lacking mutant beta-catenin – cell-based, human colon tumor, dose response (AID 1045); assay type: functional;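 further: HCT116 colon tumor cells with beta catenin knocked out; cells exposed to compound for 60 hours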
Protein skinhead-1 = biological target: T3, Protein skinhead-1 (Caenorhabditis elegans, UniProt P34707); assay type: functional
T3 sequence (P34707 whole entry): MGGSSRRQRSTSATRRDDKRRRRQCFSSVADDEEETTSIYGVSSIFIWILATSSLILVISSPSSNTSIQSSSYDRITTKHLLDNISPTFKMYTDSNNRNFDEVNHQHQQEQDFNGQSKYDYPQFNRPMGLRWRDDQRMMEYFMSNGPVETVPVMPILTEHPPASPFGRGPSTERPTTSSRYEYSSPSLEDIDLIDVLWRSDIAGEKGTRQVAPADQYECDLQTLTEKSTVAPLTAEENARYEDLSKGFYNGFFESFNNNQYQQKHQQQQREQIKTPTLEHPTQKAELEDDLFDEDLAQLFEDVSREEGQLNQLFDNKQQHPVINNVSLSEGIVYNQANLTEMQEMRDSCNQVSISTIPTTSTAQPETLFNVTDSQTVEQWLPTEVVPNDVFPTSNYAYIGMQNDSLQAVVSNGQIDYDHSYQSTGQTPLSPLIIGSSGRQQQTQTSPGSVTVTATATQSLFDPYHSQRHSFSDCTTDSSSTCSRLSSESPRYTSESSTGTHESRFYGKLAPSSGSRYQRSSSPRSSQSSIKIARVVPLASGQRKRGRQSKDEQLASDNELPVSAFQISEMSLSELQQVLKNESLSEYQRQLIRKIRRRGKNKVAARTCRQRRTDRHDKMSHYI

[13] = reduction of Shn3 3'UTR-driven luciferase in osteoblasts – cell-based, Clone20 osteoblasts, firefly luciferase, cherry-picked, dose response (AID 624132); assay type: functional;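 further: firefly luciferase luminescence from reporter carrying the Shn3 3'UTR in osteoblasts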
[14] = non-specific 3'UTR reporter inhibition in Clone20-Shn3RL – cell-based, Renilla luciferase, cherry-picked, counter-screen for Shn3 inhibitor project, dose response (AID 624133); assay type: functional
[15] = loss of viability in HepG2 cells – cell-based, CellTiter-Glo, cherry-picked, cytotoxicity control for Shn3 inhibitor project, dose response (AID 624134); assay type: functional
[16] = blockers of HIV-1 ZM109 envelope-driven cell-cell fusion – HeLa effector, CEM target cells, luciferase, cherry-pick, dose response (AID 652058); assay type: functional, cell-based;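 further: luciferase signal from HIV-1 Env mediated cell-cell fusion of effector and target cells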
Large T antigen = Large T antigen (Simian virus 40, UniProt P03070); assay type: functional, Betapolyomavirus macacae;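 further: Confirmatory-stage PubChem screen for compounds that inhibit SV40 T antigen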
Large T antigen, sequence (P03070 whole entry): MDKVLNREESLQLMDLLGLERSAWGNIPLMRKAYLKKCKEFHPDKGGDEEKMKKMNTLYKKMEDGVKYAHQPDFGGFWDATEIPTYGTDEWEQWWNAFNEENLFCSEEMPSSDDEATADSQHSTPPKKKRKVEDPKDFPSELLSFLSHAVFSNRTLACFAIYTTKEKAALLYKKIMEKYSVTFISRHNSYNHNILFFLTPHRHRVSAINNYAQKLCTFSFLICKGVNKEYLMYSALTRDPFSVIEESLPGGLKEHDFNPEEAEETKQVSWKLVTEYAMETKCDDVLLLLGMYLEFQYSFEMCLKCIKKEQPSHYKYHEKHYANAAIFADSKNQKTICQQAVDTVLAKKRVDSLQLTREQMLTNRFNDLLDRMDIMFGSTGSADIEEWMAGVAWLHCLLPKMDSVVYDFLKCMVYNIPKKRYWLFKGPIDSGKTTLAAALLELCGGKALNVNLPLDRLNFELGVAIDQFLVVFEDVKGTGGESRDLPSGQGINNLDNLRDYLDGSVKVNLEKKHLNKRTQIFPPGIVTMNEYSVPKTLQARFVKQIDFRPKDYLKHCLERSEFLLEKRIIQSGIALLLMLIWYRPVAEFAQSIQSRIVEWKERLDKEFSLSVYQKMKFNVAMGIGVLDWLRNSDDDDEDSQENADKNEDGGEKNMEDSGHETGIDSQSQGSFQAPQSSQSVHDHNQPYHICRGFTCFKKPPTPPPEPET

Cytochrome P450 1A2 = biological target: T4, Cytochrome P450 1A2 (Homo sapiens, UniProt P05177);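 further: PubChem cytochrome P450 panel assay, CYP1A2 panel member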
T4 sequence (P05177 whole entry): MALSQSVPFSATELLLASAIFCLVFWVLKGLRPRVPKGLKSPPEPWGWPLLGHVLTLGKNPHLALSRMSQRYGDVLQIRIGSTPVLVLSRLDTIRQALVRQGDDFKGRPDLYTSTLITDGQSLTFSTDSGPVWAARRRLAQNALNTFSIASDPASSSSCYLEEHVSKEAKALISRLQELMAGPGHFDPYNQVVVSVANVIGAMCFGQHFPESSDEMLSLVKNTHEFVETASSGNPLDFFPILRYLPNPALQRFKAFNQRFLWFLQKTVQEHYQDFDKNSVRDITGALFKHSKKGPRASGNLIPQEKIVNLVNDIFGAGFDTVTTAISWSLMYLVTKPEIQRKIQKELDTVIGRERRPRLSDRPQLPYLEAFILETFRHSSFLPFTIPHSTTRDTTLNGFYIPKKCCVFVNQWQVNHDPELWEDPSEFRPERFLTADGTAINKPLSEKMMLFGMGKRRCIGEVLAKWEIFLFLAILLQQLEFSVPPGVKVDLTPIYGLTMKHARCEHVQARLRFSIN

Cytochrome P450 3A4 = Cytochrome P450 3A4 (Homo sapiens, UniProt P08684);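 further: CYP3A4 tested as one member of a cytochrome P450 panel screen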
Cytochrome P450 3A4, sequence (P08684 whole entry): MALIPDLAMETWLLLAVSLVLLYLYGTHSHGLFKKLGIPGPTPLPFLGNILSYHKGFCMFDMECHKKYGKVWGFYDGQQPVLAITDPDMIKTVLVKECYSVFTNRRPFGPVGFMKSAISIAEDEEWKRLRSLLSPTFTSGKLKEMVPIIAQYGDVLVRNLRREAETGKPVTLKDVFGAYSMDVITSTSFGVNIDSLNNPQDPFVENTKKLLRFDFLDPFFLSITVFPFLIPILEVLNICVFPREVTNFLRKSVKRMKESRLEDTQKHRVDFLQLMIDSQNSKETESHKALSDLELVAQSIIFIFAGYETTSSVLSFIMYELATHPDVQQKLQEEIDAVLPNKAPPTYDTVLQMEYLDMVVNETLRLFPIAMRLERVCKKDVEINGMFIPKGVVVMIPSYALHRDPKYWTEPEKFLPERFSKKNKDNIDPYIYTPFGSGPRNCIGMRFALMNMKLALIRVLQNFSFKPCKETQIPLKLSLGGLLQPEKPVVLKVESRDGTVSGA

Fatty acid synthase [17] = biological target: T5, Fatty acid synthase (Homo sapiens, UniProt P49327); assay: inhibition of human FAS-TE enzyme activity – biochemical, endpoint fluorescence intensity, uHTS hits, dose response (AID 624327); assay type: functional;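 further: fluorescence from hydrolysis of an O-methyl fluorescein acyl ester substrate by the enzyme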
Fatty acid synthase [18] = biological target: T5, Fatty acid synthase; assay: inhibition of human FAS-TE enzyme activity – biochemical, kinetic fluorescence intensity, dose response (AID 624326); assay type: functional;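 further: rate of fluorescence rise from hydrolysis of a fluorogenic O-methyl fluorescein ester substrate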
[19] = Luminescence Cell-Based Dose Retest to Confirm Inhibitors of Cancer Stem Cells. [Related pubchem assays (depositor defined):AID2717, AID2721]; assay type: functional; details: Homo sapiens
[20] = biological target: FAD-linked sulfhydryl oxidase ALR (Homo sapiens, UniProt P55789); assay: ALR-catalysed DTT oxidation blockers – biochemical, H2O2 detection, luminescence, cherry-pick, dose response (AID 493248)
FAD-linked sulfhydryl oxidase ALR, sequence (P55789 whole entry): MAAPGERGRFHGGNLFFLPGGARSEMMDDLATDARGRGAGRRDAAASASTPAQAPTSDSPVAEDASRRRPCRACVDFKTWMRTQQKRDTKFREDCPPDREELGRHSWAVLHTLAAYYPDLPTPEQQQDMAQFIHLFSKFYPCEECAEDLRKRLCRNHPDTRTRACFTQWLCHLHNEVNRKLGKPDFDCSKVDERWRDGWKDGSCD

C[C@H]1CN([C@@H](C)CO)C(=O)Cc2cc(NC(=O)Cc3cn(C)c4ccccc34)ccc2O[C@@H]1CN(C)Cc1ccc(-c2ccccc2)cc1
AC50 [1]: 1.72 µM (active)

CC(C)NC(C(=O)Nc1cc(Cl)cc(Cl)c1)c1ccccc1 (stereo not given)
EC50 [2]: 3.62 µM (active)

Cc1ccc(C)c(-c2nn(-c3cc(N4CCN(CCO)CC4)ccc3[N+](=O)[O-])c(=O)c3ccccc23)c1
EC50 [3]: > 60 µM (not active)
CC50 [4]: 31.4 µM (active)
EC50 [5]: 2.23 µM (active)

NCCCC[C@H]1CN=C(N)N1CCC12CC3CC(CC(C3)C1)C2
AC50 [6]: 23.3 µM (active)

O=C1c2ccccc2C(Nc2cccc(C(F)(F)F)c2)N1Cc1ccco1 (stereo not given)
EC50 [2]: 3.9 µM (active)

C[C@H](CO)N1C[C@H](C)[C@H](CN(C)S(=O)(=O)c2ccccc2)Oc2cc(-c3cccc(F)c3)ccc2S1(=O)=O
AC50 [7]: 10.7 µM (active)
AC50 [8]: 11 µM (active)

O=[N+]([O-])c1ccc(C2Oc3ccccc3C3CC(c4ccccc4)=NN32)s1 (stereo not given)
CC50 [4]: 31.5 µM (active)

COc1ccc(NC(=O)CSc2ccccc2)cn1
IC50 [9]: 41.7 µM (inactive)
IC50 [10]: 33.4 µM (inactive)

CCN1CCN(c2cc(N3CCc4ccccc4C3)c(F)cc2[N+](=O)[O-])CC1
EC50 [11]: 12.8 µM (active)
EC50 [12]: 12 µM (active)

Cc1c(C(=O)NCCC2=CCCCC2)oc2ccc(S(=O)(=O)N3CCOCC3)cc12
IC50 (Protein skinhead-1): > 100 µM (inactive)
EC50 [11]: 19.2 µM (active)
EC50 [12]: 31.7 µM (active)

CC1CCN(c2ccccc2NC(=S)NC(=O)c2ccc(-c3cccc([N+](=O)[O-])c3)o2)CC1
IC50 [9]: > 66 µM (inactive)
IC50 [10]: > 66 µM (inactive)
AC50 [13]: 3.07 µM (active)
AC50 [14]: 3.38 µM (active)
AC50 [15]: > 70 µM (inactive)

O=C(Nc1ccccc1-c1ccccc1)c1ccc(Br)o1
EC50 [2]: 7.47 µM (active)

CCCCCCCCNC(=O)c1cccnc1SCC(=O)Nc1ccc(OC)cc1OC
EC50 [11]: 12.3 µM (active)
EC50 [12]: 12.6 µM (active)

Cc1cc(C)n(CCOC(=O)C2C(C=C(Cl)Cl)C2(C)C)n1 (stereo not given)
EC50 [2]: 4.86 µM (active)

C[C@@H]1CCCCO[C@@H](CN(C)Cc2ccc(Cl)c(Cl)c2)[C@@H](C)CN([C@H](C)CO)C(=O)c2cc(NC(=O)Nc3ccccc3)ccc2O1
AC50 [1]: 3.82 µM (active)

CCN(CC)S(=O)(=O)c1ccc(Cc2ncc(C(F)(F)F)cc2Cl)s1
EC50 [2]: 9.84 µM (active)

COc1cccc(S(=O)(=O)N(C)C[C@H]2Oc3cc(C#CCC(C)C)ccc3S(=O)(=O)N([C@@H](C)CO)C[C@H]2C)c1
AC50 [7]: 34.2 µM (active)
AC50 [8]: 25.1 µM (active)
AC50 [16]: 10.6 µM (active)

O=C(CCc1ccc(O)c(O)c1)NN=C(S)Nc1ccc(Br)cc1Cl
IC50 (Large T antigen): > 100 µM (active)

Cc1ccc(Cl)cc1N1CCN(C(=O)C2CCC(=O)N(C3CCCCCC3)C2)CC1 (stereo not given)
AC50 [13]: 3.14 µM (active)
AC50 [14]: 3.41 µM (active)
CC50 [4]: > 40 µM (active)
AC50 [15]: 54.8 µM (active)

COc1ccccc1OCC(=O)NCCNC(=O)COc1ccccc1OC
IC50 [9]: > 66 µM (inactive)
IC50 [10]: > 66 µM (inactive)

O=c1[nH]c2cc([N+](=O)[O-])c([N+](=O)[O-])cc2[nH]c1=O [DNQX]
AC50 (Cytochrome P450 1A2): 31.6 µM (inconclusive)
AC50 (Cytochrome P450 3A4): 25.1 µM (inconclusive)
IC50 (Fatty acid synthase [17]): 8.63 µM (active)
IC50 (Fatty acid synthase [18]): 6.88 µM (active)

CC(C)(C)NCC(O)CON=C1c2ccccc2-c2ccccc21 (stereo not given)
AC50 [6]: 20.1 µM (active)

NC(=O)OCCSc1nnc(-c2cccc(C(N)=S)c2)o1
IC50 [9]: > 66 µM (inactive)
IC50 [10]: > 66 µM (inactive)

CC(C)NC(=O)N(C)C[C@H]1Oc2c(NC(=O)Nc3ccc(C(F)(F)F)cc3)cccc2C(=O)N([C@H](C)CO)C[C@@H]1C
IC50 (Fatty acid synthase [17]): 0.842 µM (active)
IC50 (Fatty acid synthase [18]): 1.08 µM (active)

O=C(COc1cccc(C(F)(F)F)c1)N1CCN(c2ccc(O)cc2)CC1
IC50 (Large T antigen): 9.68 µM (active)
AC50 [19]: 7.3 µM (active)

COc1ccc(S(=O)(=O)N2CCOC2CNC(=O)C(=O)NCCc2c[nH]c3ccccc23)cc1C (stereo not given)
EC50 [2]: 3.31 µM (active)

C[C@H](CO)N1C[C@H](C)[C@@H](CN(C)Cc2ccc(C(F)(F)F)cc2)Oc2c(NC(=O)NC3CCCCC3)cccc2C1=O
AC50 [1]: 3.92 µM (active)

Oc1ccc(-c2cn3ccccc3n2)cc1
IC50 (Large T antigen): > 100 µM (active)
AC50 [20]: 97 nM (active)

COc1ccc(S(=O)(=O)N(C)C[C@H]2Oc3ccc(NS(=O)(=O)c4ccc(C)cc4)cc3CC(=O)N([C@H](C)CO)C[C@H]2C)cc1
AC50 [1]: 3.72 µM (active)

C[C@H]1CN([C@@H](C)CO)C(=O)Cc2cc(NC(=O)Nc3ccc4c(c3)OCO4)ccc2O[C@@H]1CN(C)Cc1ccc(C(=O)Nc2ccccc2N)cc1
AC50 [1]: 2.13 µM (active)

CN(C)CCCN(C(=O)c1ccc2c(c1)CCCC2)c1nc2c(F)cccc2s1
EC50 [3]: > 60 µM (not active)
AC50 [6]: 35.2 µM (active)
EC50 [11]: 27 µM (active)
EC50 [12]: 30 µM (active)
EC50 [5]: 0.164 µM (active)

COc1ccc(NC(=O)Nc2ccc3c(c2)CC(=O)N([C@@H](C)CO)C[C@H](C)[C@H](CN(C)S(=O)(=O)c2cccs2)O3)cc1
AC50 [7]: 27.1 µM (active)
AC50 [8]: 12 µM (active)
AC50 [16]: 13.2 µM (active)

O=C(CN1CCN(C(=O)c2ccco2)CC1)Nc1ccc(Cl)c(C(F)(F)F)c1
EC50 [2]: 3.47 µM (active)

C[C@@H]1CN([C@H](C)CO)C(=O)Cc2cc(NC(=O)Nc3ccccc3)ccc2O[C@@H]1CN(C)Cc1ccc(Oc2ccccc2)cc1
AC50 [1]: 3.76 µM (active)
